What was measured:
[1] = Absorption and fluorescence properties of B-1 in aqueous solution; type: physicochemical
Experimental: (§1) To evaluate the absorption and fluorescence properties of the phosphor compound B-1 synthesized in Example 1, the changes in the absorption and fluorescence spectra of B-1 were measured in aqueous solution and in the presence of Erwinia amylovora, the causal pathogen of fire blight in fruit trees, and the results are shown in FIG. 2.
(§2) Specifically, the E. amylovora used in the experiment was cultured overnight at 26° C. in Luria-Bertani (LB) liquid medium. After cultivation, E. amylovora was harvested by centrifugation at 10,000 ref. First, B-1 was added, and its absorption and fluorescence spectra were analyzed in aqueous solution. Then, E. amylovora (4.3×10^8 CFU) was added to the aqueous solution containing B-1, and the changes in the absorption and fluorescence spectra were analyzed. A UV/Vis spectrophotometer (Agilent, USA) was used to analyze the absorbance spectra, and a fluorescence spectrophotometer (SHIMADZU CORP. RF-6000, Japan) was used for fluorescence spectra analysis. For all spectral measurements, a standard quartz cell with a path length of 1 cm (Hellma Analytics, Germany) was used.
(§3) The measurement results are shown in FIG. 2, where the absorption and fluorescence spectra of B-1 (10 μM) in aqueous solution are represented by a dashed line, and those in the presence of E. amylovora are represented by a solid line.

[2] = tested on: E. amylovora; experiment: Detection of E. amylovora on apple tree tissues (spray and swab methods); design: species or system Erwinia amylovora; details: tissue incubated with E. amylovora 10^8 CFU/mL
Experimental: Detection of E. amylovora on each plant tissue was then attempted by either spraying with a 100 μM solution of B-1 or swabbing with a cotton swab soaked in B-1 solution. Fluorescence changes were observed under a 365 nm flashlight.

[3] = tested on: E. amylovora; experiment: Time-dependent detection capability of B-1 for E. amylovora; type: cell-based, Erwinia amylovora; details: B-1 10 μM, E. amylovora 10^8 CFU/mL in DI H2O, 686 nm, excitation 550 nm, monitored up to 40 minutes
Experimental: Specifically, 10 μM of B-1 was reacted with E. amylovora at a concentration of 10^8 CFU/mL, quantified as described in Example 3, in DI H2O. Fluorescence changes were monitored at 686 nm with 550 nm excitation for up to 40 minutes.

[4] = tested on: E. amylovora; experiment: Detection of E. amylovora on plant surfaces (spraying method), immature apples and apple blossoms; design: species or system Erwinia amylovora; details: 100 μM B-1 sprayed twice, 365 nm flashlight
Experimental: To evaluate whether E. amylovora present on actual plant surfaces could be detected using the phosphor compound B-1 synthesized in Example 1, a spraying-based detection was performed by applying B-1 to tissues (organs: fruits and blossoms) of a Fuji apple tree, and the procedure and results are shown in FIG. 7.
Specifically, to simulate plants infected with fire blight in fruit trees, E. amylovora quantified as described in Example 3 at concentrations of 10^2 to 10^8 CFU/mL was applied to immature apples (fruits) and apple blossoms using a brush, as shown in FIG. 7a. To allow E. amylovora to adhere to the plant surface, the samples were air-dried for 10 minutes. For detection, a 100 μM solution of B-1 diluted in […] was sprayed twice, and 10 minutes later, fluorescence changes were observed under a 365 nm flashlight.

[5] = tested on: E. amylovora; experiment: Staining ability for E. amylovora, confocal laser scanning microscopy; type: cell-based, Erwinia amylovora; details: B-1 30 μM with DAPI 300 nM in PBS, 1 hour
Experimental: Specifically, E. amylovora obtained as described in Example 2 was stained by reacting with 30 μM of B-1 in phosphate-buffered saline (PBS) for 1 hour. To visualize […] E. amylovora, a counterstain with 300 nM of 4′,6-diamidino-2-phenylindole (DAPI) was applied simultaneously. The stained E. amylovora was then washed three times with PBS to remove residual B-1 and DAPI, followed by heat fixation and mounting on a slide glass for imaging using a confocal laser scanning microscope (Carl Zeiss, Germany). During confocal microscopy, differential interference contrast (DIC) images were also captured. The wavelengths used for imaging were as follows: [DAPI] excitation wavelength: 405 nm, emission wavelength: 410-530 nm, [B-1] excitation wavelength: 561 nm, emission wavelength: 600-700 nm.

[6] = tested on: E. amylovora; experiment: Fluorescence response of B-1 according to concentration of E. amylovora; type: cell-based, Erwinia amylovora; details: B-1 10 μM, E. amylovora 2×10^6 to 4×10^8 CFU/mL in DI H2O, excitation 550 nm
Experimental: Specifically, to determine the concentration of E. amylovora obtained as described in Example 2, absorbance at 600 nm was measured (OD600 0.1=1×10^8 cells). E. amylovora was then diluted in DI H2O to concentrations ranging from 2×10^6 to 4×10^8 CFU/mL, and each dilution was reacted with 10 μM of B-1. Fluorescence intensity at 686 nm was recorded after excitation at 550 nm, and plotted on a graph.

[7] = tested on: E. amylovora; experiment: Limit of detection of B-1 for E. amylovora; type: cell-based, Erwinia amylovora; details: B-1 5 μM in DI H2O, emission 686 nm, excitation 551 nm, serially diluted E. amylovora
Experimental: E. amylovora was serially diluted and reacted with the phosphor compound B-1 synthesized in Example 1 to evaluate its minimum detection capability, and the results are shown in FIG. 4.
Specifically, quantified E. amylovora, as prepared in Example 3, was reacted with 5 μM of B-1 in DI H2O. Fluorescence intensity was then measured at 686 nm with an excitation wavelength of 551 nm, and the results were plotted on a graph.

[8] = tested on: Erwinia amylovora; experiment: Absorption and fluorescence change of B-1 in the presence of E. amylovora; type: cell-based; details: B-1 10 μM, E. amylovora 4.3×10^8 CFU
Experimental: as §1, §2, §3

[9] = tested on: E. amylovora; experiment: Detection of E. amylovora on agricultural tool surfaces (spraying); design: species or system Erwinia amylovora; details: 100 μM B-1 sprayed twice, 365 nm flashlight
Description: To evaluate whether the phosphor compound B-1 synthesized in Example 1 could detect E. amylovora present on objects, a spraying-based detection method was employed. As the test object, farming tools, which are known to be one of the causes of cross-contamination from infected plants in orchards, were used.
Specifically, to simulate farming tools exposed to E. amylovora, pruning shears and a trowel were either used to cut fire blight-infected plants directly or rubbed in soil contaminated with E. amylovora, as shown in FIG. 9a. Detection of E. amylovora was carried out by spraying 100 μM of B-1 solution twice onto the tool surfaces, and fluorescence images were captured under a 365 nm flashlight.

Row | maximum absorption ([1]; B-1 10 μM in aqueous solution) [nm] | fluorescence in aqueous solution ([1]; B-1 10 μM, aqueous solution, excitation 550 nm) | Structure (SMILES) | fluorescence on infected apple twigs, spraying ([2]; 100 μM B-1 sprayed, 365 nm flashlight) | fluorescence of B-1-soaked swab rubbed onto infected apple blossoms and leaves ([2]; cotton swab soaked with B-1, 365 nm flashlight) | time to rapid fluorescence increase [3] [min] | lowest detectable level of E. amylovora on actual plant surfaces ([4]; ImageJ quantification) | red fluorescence on immature apples and apple blossoms ([4]; E. amylovora 10^2 to 10^8 CFU/mL brushed on, 10 minutes) | staining of E. amylovora (confocal fluorescence) [5] | fluorescence intensity at 686 nm versus E. amylovora concentration [6] | lowest detectable concentration of E. amylovora [7] | change of absorption spectrum upon addition of E. amylovora [8] | wavelength of highest fluorescence increase ([8]; excitation 550 nm) [nm] | fluorescence change upon addition of E. amylovora ([8]; excitation 550 nm, compared to aqueous condition alone) | fluorescence of contaminated areas of pruning shears and trowel [9]
1 | 550 | little to no fluorescence | CN(C)c1ccc2cc3cc(C(=C(C#N)C#N)c4ccccc4)oc3cc2c1 [Compound B-1] | red fluorescence was observed | red fluorescence was emitted from the swab | ≤ 10 | 10^2 CFU/mL | red fluorescence was observed for all concentrations | capable of staining live E. amylovora and produces strong red fluorescence | increased in proportion to the concentration of E. amylovora | 10^2 CFU/mL | slight overall increase | 686 | significant enhancement | emitted red fluorescence
2 | – | – | N=C(N)c1ccc(-c2cc3ccc(C(=N)N)cc3[nH]2)cc1 [DAPI, 4′,6-diamidino-2-phenylindole, reference compound] | – | – | – | – | – | fluorescence signals were observed | – | – | – | – | – | –

From patent publication US20260116865A1, “PHOSPHOR FOR DETECTING FIRE BLIGHT PATHOGEN AND USE THEREOF” (UNIVERSITY-INDUSTRY COOPERATION GROUP OF KYUNG HEE …, priority 2023, published 2026)
